{"source": "ChEMBL document CHEMBL1201862", "about": "“PubChem BioAssay data set” (2004)", "key": {"[1]": {"target": "FAD-linked sulfhydryl oxidase ALR (Homo sapiens, UniProt P55789)", "sequence (P55789 whole entry)": "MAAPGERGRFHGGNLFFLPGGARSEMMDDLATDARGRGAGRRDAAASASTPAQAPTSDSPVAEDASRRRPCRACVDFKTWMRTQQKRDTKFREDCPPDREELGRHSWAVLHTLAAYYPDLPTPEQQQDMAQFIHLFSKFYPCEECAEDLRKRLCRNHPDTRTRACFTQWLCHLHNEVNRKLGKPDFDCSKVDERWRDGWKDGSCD", "assay": "ALR-catalysed DTT oxidation blockers – biochemical, H2O2 detection, luminescence, cherry-pick, dose response (AID 493248)"}, "[2]": {"assay": "NIH-3T3 fibroblast cytotoxicity, dose response, cytotoxicity control, cell-based, fluorescence, Alamar Blue, secondary assay (AID 2327);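 further: NIH-3T3 mouse fibroblasts cultured with fluconazole at 8 µg/mL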", "format": "functional"}, "[3]": {"assay": "fluconazole-exposed Candida albicans growth modulators – fluorescence, retest, confirmation (AID 2467)", "format": "functional, cell-based"}, "[4]": {"target": "T1, Protein skinhead-1 (Caenorhabditis elegans, UniProt P34707)", "T1 sequence (P34707 whole entry)": "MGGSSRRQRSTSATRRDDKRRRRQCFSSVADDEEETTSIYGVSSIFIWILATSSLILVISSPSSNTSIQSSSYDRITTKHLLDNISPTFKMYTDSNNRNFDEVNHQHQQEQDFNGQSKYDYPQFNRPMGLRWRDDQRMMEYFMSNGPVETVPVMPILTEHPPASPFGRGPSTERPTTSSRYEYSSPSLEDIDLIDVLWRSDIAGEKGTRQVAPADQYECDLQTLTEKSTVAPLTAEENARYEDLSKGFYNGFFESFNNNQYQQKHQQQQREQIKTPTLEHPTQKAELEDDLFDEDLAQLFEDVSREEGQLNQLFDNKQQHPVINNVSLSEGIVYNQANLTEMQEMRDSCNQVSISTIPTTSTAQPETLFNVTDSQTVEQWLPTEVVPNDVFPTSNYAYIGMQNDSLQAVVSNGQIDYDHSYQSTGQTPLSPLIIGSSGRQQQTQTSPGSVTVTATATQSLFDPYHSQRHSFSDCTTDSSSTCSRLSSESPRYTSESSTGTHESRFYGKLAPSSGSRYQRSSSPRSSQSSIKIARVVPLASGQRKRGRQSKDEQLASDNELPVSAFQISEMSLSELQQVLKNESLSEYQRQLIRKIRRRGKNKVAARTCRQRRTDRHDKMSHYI", "format": "functional"}, "[5]": {"target": "T2, Ubiquitin-conjugating enzyme E2 N (Homo sapiens, UniProt P61088)", "T2 sequence (P61088 whole entry)": "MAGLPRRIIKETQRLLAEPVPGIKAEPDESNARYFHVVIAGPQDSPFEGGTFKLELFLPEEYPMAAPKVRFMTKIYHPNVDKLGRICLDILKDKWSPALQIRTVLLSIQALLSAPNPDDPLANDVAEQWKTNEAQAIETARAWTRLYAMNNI", "format": "functional"}, "[6]": {"target": "T3, Polyadenylate-binding protein 1 (Homo sapiens, UniProt P11940)", "T3 sequence (P11940 whole entry)": "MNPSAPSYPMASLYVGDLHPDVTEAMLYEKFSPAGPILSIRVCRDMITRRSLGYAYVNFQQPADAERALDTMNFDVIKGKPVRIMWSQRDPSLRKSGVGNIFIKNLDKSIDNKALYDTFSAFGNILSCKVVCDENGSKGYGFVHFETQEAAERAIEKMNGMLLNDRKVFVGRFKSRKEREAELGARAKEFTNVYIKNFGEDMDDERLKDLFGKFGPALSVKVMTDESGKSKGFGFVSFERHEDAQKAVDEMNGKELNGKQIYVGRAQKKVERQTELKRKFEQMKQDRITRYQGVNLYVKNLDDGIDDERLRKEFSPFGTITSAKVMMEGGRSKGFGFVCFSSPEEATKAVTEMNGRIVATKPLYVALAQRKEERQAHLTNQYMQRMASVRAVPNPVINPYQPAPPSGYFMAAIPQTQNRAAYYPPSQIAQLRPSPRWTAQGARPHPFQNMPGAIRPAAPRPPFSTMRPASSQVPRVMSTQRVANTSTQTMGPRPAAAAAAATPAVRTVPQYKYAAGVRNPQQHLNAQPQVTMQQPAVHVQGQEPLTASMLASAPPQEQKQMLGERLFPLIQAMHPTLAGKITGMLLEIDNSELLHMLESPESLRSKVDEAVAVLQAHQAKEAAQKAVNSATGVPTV", "assay": "MLLE binding blockers, Cy5 peptide tracer – biochemical, fluorescence polarization, Cy5-PAM2 peptide, secondary, miRNA deadenylation inhibitor project, dose response (AID 602260)", "format": "functional", "conditions": "read-out: IC50_Mean"}, "[7]": {"target": "T3, Polyadenylate-binding protein 1", "assay": "MLLE domain peptide-binding blockers, IC50 – biochemical, fluorescence polarization, FITC-PAM2 peptide, dose response (AID 602259)", "format": "functional", "conditions": "read-out: IC50_Mean"}, "[8]": {"system": "Streptococcus sp. 'group A'", "assay": "Streptococcus pyogenes SK(-)GAS viability under kanamycin – luminescence, BacTiterGlo, confirmation, counter-screen for streptokinase expression inhibitor project, dose response (AID 1900)", "format": "functional, organism-based"}, "[9]": {"system": "Streptococcus", "assay": "GAS UMAA2166 growth inhibition – luminescence, BacTiterGlo, counter-screen for streptokinase expression inhibitor project, dose response (AID 1915);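 further: potency for reduction of bacterial viability or growth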", "format": "functional, organism-based"}, "[10]": {"assay": "viability of PTEN-deleted HCT116 cells – cell-based, HCT116 PTEN knockout, dose response (AID 1047);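 further: cells exposed to compound for 60 hours before readout; potency for loss of cell viability measured by luminescence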", "format": "functional"}, "[11]": {"assay": "viability of HCT116 lacking mutant beta-catenin – cell-based, human colon tumor, dose response (AID 1045);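 further: cells exposed to compound for 60 hours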", "format": "functional"}, "[12]": {"assay": "Luminescence Cell-Based Dose Response HTS to Identify Activators of Luciferase Translation or Activity in H4 […] Cells. [Related pubchem assays: 1829 (Project Summary), 1814 (Primary HTS)]", "format": "functional"}, "[13]": {"assay": "Luminescence Cell-Based Dose Confirmation HTS to Identify Activators of 5'UTR Stem-Loop Driven Alpha-Synuclein mRNA Translation in H4 Neuroglioblastoma Cells. [Related pubchem assays: 1829 (Project Summary), 1814 (Primary HTS)]", "format": "functional"}, "[14]": {"system": "H4", "assay": "Luminescence Cell-Based Dose Response HTS to Identify Activators of 5'UTR Stem-Loop Driven Prion Protein mRNA Translation in H4 Neuroglioblastoma Cells. [Related pubchem assays: 1829 (Project Summary), 1814 (Primary HTS)]", "format": "functional", "conditions": "Homo sapiens"}}, "note": "Calls of active or inactive are those of the source."}
{"smiles": "COc1cccc(N2C(=O)CC(N3CCc4ccccc43)C2=O)c1", "note": "(centres undefined)", "values": [{"measurement": "AC50", "setting": "[1]", "result": "1.21 µM (active)"}]}
{"smiles": "CCn1c(C)nc2cc(C(=O)NN=C(S)Nc3ccc(Cl)cc3Cl)ccc21", "values": [{"measurement": "EC50", "setting": "[2]", "result": "> 160 µM (inactive)"}, {"measurement": "EC50", "setting": "[3]", "result": "6.98 µM (active)"}]}
{"smiles": "Cc1ccc(NC(=O)CSCC(=O)Nc2ccccc2C(=O)N2CCCCC2)cc1", "values": [{"measurement": "IC50", "setting": "[4]", "result": "> 100 µM (inactive)"}]}
{"smiles": "Cc1cc(C)c(NC(=O)COC(=O)C2CCN(c3ccc(C(F)(F)F)cn3)CC2)c(Cl)c1", "values": [{"measurement": "IC50", "setting": "[4]", "result": "> 100 µM (inactive)"}]}
{"smiles": "Cn1ncc2c(NCCc3ccccc3)nc(Cl)nc21", "values": [{"measurement": "IC50", "setting": "[4]", "result": "> 100 µM (inactive)"}]}
{"smiles": "O=C(O)c1ccc(Nc2ccc([N+](=O)[O-])c3nonc23)cc1", "values": [{"measurement": "IC50", "setting": "[4]", "result": "48.5 µM (active)"}]}
{"smiles": "OCCNc1nc(Nc2cc(Cl)ccc2OC2CCCC2)nc(N2CCCC2)n1", "values": [{"measurement": "IC50", "setting": "[5]", "result": "> 20 µM (inactive)"}]}
{"smiles": "OCC(O)CN=C(S)NC1CCCCC1", "note": "(centres undefined)", "values": [{"measurement": "IC50", "setting": "[6]", "result": "> 66 µM (inactive)"}, {"measurement": "IC50", "setting": "[7]", "result": "> 66 µM (inactive)"}]}
{"smiles": "O=C(CSc1nc(-c2ccccc2)cs1)Nc1nccs1", "values": [{"measurement": "EC50", "setting": "[2]", "result": "> 160 µM (inactive)"}, {"measurement": "EC50", "setting": "[3]", "result": "> 38 µM (not active)"}]}
{"smiles": "Cc1ccc(NC(=S)c2nc3ccccc3[nH]2)cc1", "values": [{"measurement": "EC50", "setting": "[8]", "result": "3.7 µM (active)"}, {"measurement": "EC50", "setting": "[2]", "result": "> 160 µM (inactive)"}, {"measurement": "EC50", "setting": "[9]", "result": "7.64 µM (active)"}, {"measurement": "EC50", "setting": "[10]", "result": "26.3 µM (active)"}, {"measurement": "EC50", "setting": "[3]", "result": "> 38 µM (not active)"}, {"measurement": "EC50", "setting": "[11]", "result": "19.2 µM (active)"}]}
{"smiles": "Cc1ccc(NC(=S)NC(=O)C2CC2)c(C)c1", "values": [{"measurement": "IC50", "setting": "[4]", "result": "> 100 µM (inactive)"}]}
{"smiles": "CCN(CC)c1ccc(/C=N/NC(=O)Nc2nonc2N)cc1", "values": [{"measurement": "AC50", "setting": "[1]", "result": "1.38 µM (active)"}, {"measurement": "EC50", "setting": "[12]", "result": "7.18 µM (active)"}, {"measurement": "EC50", "setting": "[13]", "result": "98.8 µM (active)"}, {"measurement": "EC50", "setting": "[14]", "result": "30.9 µM (active)"}]}
{"smiles": "CC(C)NC(=S)N/N=C/c1ccc(C(C)(C)C)cc1", "values": [{"measurement": "EC50", "setting": "[2]", "result": "91.3 µM (inconclusive)"}, {"measurement": "EC50", "setting": "[3]", "result": "> 38 µM (not active)"}]}
{"smiles": "COc1ccc(NC(=O)CSc2nnc(-c3ccccc3C)n2N)cc1", "values": [{"measurement": "IC50", "setting": "[6]", "result": "> 66 µM (inactive)"}, {"measurement": "IC50", "setting": "[7]", "result": "> 66 µM (inactive)"}]}
{"smiles": "CCOC(=O)c1c(CN2CCN(c3ccccc3)CC2)oc2ccc(O)cc12", "values": [{"measurement": "IC50", "setting": "[5]", "result": "> 20 µM (inactive)"}]}
{"smiles": "c1ccc(-c2ccc(-c3ccncn3)cc2)cc1", "values": [{"measurement": "IC50", "setting": "[4]", "result": "15.2 µM (active)"}]}
{"smiles": "CCOC(=O)c1nc(Nc2ccc(C)cc2)c2ccccc2n1", "values": [{"measurement": "IC50", "setting": "[6]", "result": "> 66 µM (inactive)"}, {"measurement": "IC50", "setting": "[7]", "result": "> 66 µM (inactive)"}]}
{"smiles": "Cc1cc(C)n(N=C(S)NC2CCCC2)c(=O)c1C#N", "values": [{"measurement": "IC50", "setting": "[6]", "result": "> 66 µM (inactive)"}, {"measurement": "IC50", "setting": "[7]", "result": "> 66 µM (inactive)"}]}
{"smiles": "Cc1ccc2[nH]c(CCc3ccc(N)cc3)nc2c1", "values": [{"measurement": "AC50", "setting": "[1]", "result": "0.018 µM (active)"}]}
